From PubChem BioAssay AID434995 (Southern Research Specialized Biocontainment Screening …, 2010)
Activity calls are given as the source filed them. The rule behind the calls is not given here.

Assays:
[1] = PhoP regulon inhibitors in S. Typhi, SAR follow-up, purified and synthesized compounds, round 3 (AID 434995); conditions: S. Typhi PhoP-regulated promoter GFP reporter, 4 h
[2] = tested on: S. Typhi PhoP-regulated promoter GFP reporter, 4 h; assay: as above

Structure (SMILES)	inhibition ([1]; at 150 µM (top of the series))	other results
N#Cc1ccccc1NC(=S)NCc1ccc(Cl)cc1	-27.4% (inactive)	–
O=C(Nc1cccc(F)c1)N1CCCN(Cc2ccccc2F)C1	25.8% (inactive)	–
Cc1ccccc1CNC(=S)Nc1ccncc1	-37.8% (inactive)	–
COc1ccccc1CNC(=S)Nc1ccncc1	11.4% (inactive)	–
S=C(NCCc1ccc(Cl)cc1)Nc1ccncc1	–	IC50 [2]: 20.7 µM
O=C(Nc1ccc(Cl)cc1)N1CCCN(Cc2ccc(Br)cc2)C1	–	inhibition ([1]; at 75 µM (top of the series)): -28.5% (inactive)
O=C(Nc1cccc(I)c1)N1CCCN(Cc2ccccc2F)C1	-16.5% (inactive)	–
O=C(Nc1ccc(Cl)cc1)N1CCCN(Cc2ccccc2Br)C1	–	IC50 [2]: 116 µM
Cc1ccc(NC(=O)N2CCCN(Cc3ccccc3F)C2)cc1	-12.7% (inactive)	–
O=C(Nc1cccc(C(F)(F)F)c1)N1CCCN(Cc2ccccc2F)C1	8.86% (inactive)	–
O=C(Nc1ccc(I)cc1)N1CCCN(Cc2ccccc2F)C1	–	IC50 [2]: 81.6 µM
N#Cc1ccc(NC(=S)NCc2ccc(Cl)cc2)cc1	-25.7% (inactive)	–
